{"source": "patent US11850286B2", "about": "“Sulfamide linker, conjugates thereof, and methods of preparation” (priority 2014, dated 2023)", "experiment": "Determination of HPLC retention time (RP-HPLC, polarity)", "assay_type": "physicochemical", "experimental": "Samples of compounds 19-38 were injected on an HPLC system equipped with an Phenomenex Luna C18(2) 5μ, 150×4.6 mm, 100 Å column and eluted with either a gradient of 10% MeCN (0.1% TFA)/90% water (0.1% TFA) to 90% MeCN (0.1% TFA)/10% water (0.1% TFA) or a gradient of 10% MeCN/90% 10 mM potassium phosphate buffer pH 7.4 to 90% MeCN/10% 10 mM potassium phosphate buffer pH 7.4. The retention times obtained for these compounds are depicted in Table 3.", "key": {"[1]": {"conditions": "RP-HPLC C18, MeCN/10 mM potassium phosphate buffer pH 7.4 gradient"}, "[2]": {"conditions": "RP-HPLC C18, MeCN/water gradient with 0.1% TFA"}}, "data": [{"smiles": "CN(C(=O)OCCCCCNC(=O)OCC1C2CCC#CCCC21)S(=O)(=O)NCc1ccccc1", "note": "(centres unmarked) [Compound 22]", "values": [{"measurement": "retention time", "setting": "[1]", "result": 12.6, "unit": "min"}, {"measurement": "retention time", "setting": "[2]", "result": 12.7, "unit": "min"}]}, {"smiles": "COc1cc2cc(c1Cl)N(C)C(=O)C[C@H](OC(=O)[C@H](C)N(C)C(=O)CCCCCNC(=O)OCc1ccc(NC(=O)[C@H](CCCNC(N)=O)NC(=O)[C@@H](NC(=O)OCCN(CCOC(=O)N[C@H](C(=O)N[C@@H](CCCNC(N)=O)C(=O)Nc3ccc(COC(=O)NCCCCCC(=O)N(C)[C@@H](C)C(=O)O[C@H]4CC(=O)N(C)c5cc(cc(OC)c5Cl)C/C(C)=C/C=C/[C@@H](OC)[C@@]5(O)C[C@H](OC(=O)N5)[C@@H](C)[C@@H]5O[C@@]45C)cc3)C(C)C)S(=O)(=O)NC(=O)OCC3C4CCC#CCCC43)C(C)C)cc1)[C@]1(C)O[C@H]1[C@H](C)[C@@H]1C[C@@](O)(NC(=O)O1)[C@H](OC)/C=C/C=C(\\C)C2", "note": "(some centres unmarked) [Compound 37]", "values": [{"measurement": "retention time", "setting": "[1]", "result": 10.5, "unit": "min"}, {"measurement": "retention time", "setting": "[2]", "result": 11.2, "unit": "min"}]}, {"smiles": "COc1cc2cc(c1Cl)N(C)C(=O)C[C@H](OC(=O)[C@H](C)N(C)C(=O)CCCCCNC(=O)OCc1ccc(NC(=O)[C@H](CCCNC(N)=O)NC(=O)[C@@H](NC(=O)OCCN(CCOC(=O)N[C@H](C(=O)N[C@@H](CCCNC(N)=O)C(=O)Nc3ccc(COC(=O)NCCCCCC(=O)N(C)[C@@H](C)C(=O)O[C@H]4CC(=O)N(C)c5cc(cc(OC)c5Cl)C/C(C)=C/C=C/[C@@H](OC)[C@@]5(O)C[C@H](OC(=O)N5)[C@@H](C)[C@@H]5O[C@@]45C)cc3)C(C)C)S(=O)(=O)NC(=O)OCCOCCNS(=O)(=O)NC(=O)OCC3C4CCC#CCCC43)C(C)C)cc1)[C@]1(C)O[C@H]1[C@H](C)[C@@H]1C[C@@](O)(NC(=O)O1)[C@H](OC)/C=C/C=C(\\C)C2", "note": "(some centres unmarked) [Compound 38]", "values": [{"measurement": "retention time", "setting": "[1]", "result": 9.5, "unit": "min"}, {"measurement": "retention time", "setting": "[2]", "result": 11.1, "unit": "min"}]}, {"smiles": "O=C(CCCCCCNC(=O)OCC1C2CCC#CCCC21)NS(=O)(=O)NCc1ccccc1", "note": "(centres unmarked) [Compound 20]", "values": [{"measurement": "retention time", "setting": "[1]", "result": 9.6, "unit": "min"}, {"measurement": "retention time", "setting": "[2]", "result": 11.6, "unit": "min"}]}, {"smiles": "COc1cc2cc(c1Cl)N(C)C(=O)C[C@H](OC(=O)[C@H](C)N(C)C(=O)CCCCCNC(=O)OCc1ccc(NC(=O)[C@H](CCCNC(N)=O)NC(=O)[C@@H](NC(=O)OCCOCCNS(=O)(=O)NC(=O)OCC3C4CCC#CCCC43)C(C)C)cc1)[C@]1(C)O[C@H]1[C@H](C)[C@@H]1C[C@@](O)(NC(=O)O1)[C@H](OC)/C=C/C=C(\\C)C2", "note": "(some centres unmarked) [Compound 36]", "values": [{"measurement": "retention time", "setting": "[1]", "result": 9.3, "unit": "min"}, {"measurement": "retention time", "setting": "[2]", "result": 10.4, "unit": "min"}]}, {"smiles": "COc1cc2cc(c1Cl)N(C)C(=O)C[C@H](OC(=O)[C@H](C)N(C)C(=O)CCCCCNC(=O)CCOCCOCCOCCOCCNC(=O)OCC1C3CCC#CCCC31)[C@]1(C)O[C@H]1[C@H](C)[C@@H]1C[C@@](O)(NC(=O)O1)[C@H](OC)/C=C/C=C(\\C)C2", "note": "(some centres unmarked) [Compound 30]", "values": [{"measurement": "retention time", "setting": "[1]", "result": 10.6, "unit": "min"}, {"measurement": "retention time", "setting": "[2]", "result": 10.5, "unit": "min"}]}, {"smiles": "COc1cc2cc(c1Cl)N(C)C(=O)C[C@H](OC(=O)[C@H](C)N(C)C(=O)CCCCCNC(=O)CCOCCOCCOCCOCCOCCOCCOCCOCCOCCOCCOCCOCCNC(=O)OCC1C3CCC#CCCC31)[C@]1(C)O[C@H]1[C@H](C)[C@@H]1C[C@@](O)(NC(=O)O1)[C@H](OC)/C=C/C=C(\\C)C2", "note": "(some centres unmarked) [Compound 31]", "values": [{"measurement": "retention time", "setting": "[1]", "result": 10.1, "unit": "min"}, {"measurement": "retention time", "setting": "[2]", "result": 10.1, "unit": "min"}]}, {"smiles": "O=C(CCCCCCNC(=O)OCC1C2CCC#CCCC21)NCc1ccccc1", "note": "(centres unmarked) [Compound 19, BCN-Heptanoic Acid Benzylamide]", "values": [{"measurement": "retention time", "setting": "[1]", "result": 11.4, "unit": "min"}, {"measurement": "retention time", "setting": "[2]", "result": 11.4, "unit": "min"}]}, {"smiles": "COc1cc2cc(c1Cl)N(C)C(=O)C[C@H](OC(=O)[C@H](C)N(C)C(=O)CCCCCNC(=O)CCOCCOCCOCCOCCOCCOCCOCCOCCOCCOCCOCCOCCOCCOCCOCCOCCOCCOCCOCCOCCOCCOCCOCCOCCNC(=O)OCC1C3CCC#CCCC31)[C@]1(C)O[C@H]1[C@H](C)[C@@H]1C[C@@](O)(NC(=O)O1)[C@H](OC)/C=C/C=C(\\C)C2", "note": "(some centres unmarked) [Compound 32]", "values": [{"measurement": "retention time", "setting": "[1]", "result": 9.7, "unit": "min"}, {"measurement": "retention time", "setting": "[2]", "result": 9.7, "unit": "min"}]}, {"smiles": "O=C(NCCCCCOC(=O)NS(=O)(=O)NCc1ccccc1)OCC1C2CCC#CCCC21", "note": "(centres unmarked) [Compound 21]", "values": [{"measurement": "retention time", "setting": "[1]", "result": 9.2, "unit": "min"}, {"measurement": "retention time", "setting": "[2]", "result": 11.6, "unit": "min"}]}]}
